Activity calls are given as the source filed them. How the calls were made is not given here.
Tested on: CCRIS mutagenicity, Ames/micronucleus/aberration tests
Test: CCRIS mutagenicity studies
Conditions: Test System: AMES SALMONELLA TYPHIMURIUM

CC1(C)COC1=O
mutagenic call (Strain/Indicator: TA98, Metabolic Activation: HAMSTER, LIVER, S-9, AROCLOR 1254, Method: PREINCUBATION): inactive; negative
mutagenic call (Strain/Indicator: TA98, Metabolic Activation: HAMSTER, LIVER, S-9, AROCLOR 1254, Method: STANDARD PLATE): inactive; negative
mutagenic call (Strain/Indicator: TA98, Metabolic Activation: HAMSTER, LIVER, S-9, Method: PREINCUBATION): inactive; negative
mutagenic call (Strain/Indicator: TA98, Metabolic Activation: HAMSTER, LIVER, S-9, Method: STANDARD PLATE): inactive; negative
mutagenic call (Strain/Indicator: TA98, Metabolic Activation: MOUSE, LIVER, S-9, AROCLOR 1254, Method: PREINCUBATION): inactive; negative
mutagenic call (Strain/Indicator: TA98, Metabolic Activation: MOUSE, LIVER, S-9, AROCLOR 1254, Method: STANDARD PLATE): inactive; negative
mutagenic call (Strain/Indicator: TA98, Metabolic Activation: MOUSE, LIVER, S-9, Method: PREINCUBATION): inactive; negative
mutagenic call (Strain/Indicator: TA98, Metabolic Activation: MOUSE, LIVER, S-9, Method: STANDARD PLATE): inactive; negative
mutagenic call (Strain/Indicator: TA98, Metabolic Activation: NONE, Method: PREINCUBATION): inactive; negative
mutagenic call (Strain/Indicator: TA98, Metabolic Activation: NONE, Method: STANDARD PLATE): inactive; negative
mutagenic call (Strain/Indicator: TA98, Metabolic Activation: RAT, LIVER, S-9, AROCLOR 1254, Method: PREINCUBATION): inactive; negative
mutagenic call (Strain/Indicator: TA98, Metabolic Activation: RAT, LIVER, S-9, AROCLOR 1254, Method: STANDARD PLATE): inactive; negative
mutagenic call (Strain/Indicator: TA98, Metabolic Activation: RAT, LIVER, S-9, Method: PREINCUBATION): inactive; negative
mutagenic call (Strain/Indicator: TA98, Metabolic Activation: RAT, LIVER, S-9, Method: STANDARD PLATE): inactive; negative
mutagenic call (Strain/Indicator: TA100, Metabolic Activation: HAMSTER, LIVER, S-9, AROCLOR 1254, Method: STANDARD PLATE): active; positive
mutagenic call (Strain/Indicator: TA100, Metabolic Activation: HAMSTER, LIVER, S-9, Method: STANDARD PLATE): active; positive
mutagenic call (Strain/Indicator: TA100, Metabolic Activation: MOUSE, LIVER, S-9, AROCLOR 1254, Method: STANDARD PLATE): active; positive
mutagenic call (Strain/Indicator: TA100, Metabolic Activation: MOUSE, LIVER, S-9, Method: STANDARD PLATE): active; positive
mutagenic call (Strain/Indicator: TA100, Metabolic Activation: NONE, Method: STANDARD PLATE): active; positive
mutagenic call (Strain/Indicator: TA100, Metabolic Activation: RAT, LIVER, S-9, AROCLOR 1254, Method: STANDARD PLATE): active; positive
mutagenic call (Strain/Indicator: TA100, Metabolic Activation: RAT, LIVER, S-9, Method: STANDARD PLATE): active; positive
mutagenic call (Strain/Indicator: TA1535, Metabolic Activation: HAMSTER, LIVER, S-9, AROCLOR 1254, Method: PREINCUBATION): inactive; negative
mutagenic call (Strain/Indicator: TA1535, Metabolic Activation: HAMSTER, LIVER, S-9, Method: PREINCUBATION): inactive; negative
mutagenic call (Strain/Indicator: TA1535, Metabolic Activation: MOUSE, LIVER, S-9, AROCLOR 1254, Method: PREINCUBATION): inactive; negative
mutagenic call (Strain/Indicator: TA1535, Metabolic Activation: MOUSE, LIVER, S-9, Method: PREINCUBATION): inactive; negative
mutagenic call (Strain/Indicator: TA1535, Metabolic Activation: NONE, Method: PREINCUBATION): inactive; negative
mutagenic call (Strain/Indicator: TA1535, Metabolic Activation: RAT, LIVER, S-9, AROCLOR 1254, Method: PREINCUBATION): inactive; negative
mutagenic call (Strain/Indicator: TA1535, Metabolic Activation: RAT, LIVER, S-9, Method: PREINCUBATION): inactive; negative
mutagenic call (Strain/Indicator: TA1537, Metabolic Activation: HAMSTER, LIVER, S-9, AROCLOR 1254, Method: PREINCUBATION): inactive; negative
mutagenic call (Strain/Indicator: TA1537, Metabolic Activation: HAMSTER, LIVER, S-9, AROCLOR 1254, Method: STANDARD PLATE): inactive; negative
mutagenic call (Strain/Indicator: TA1537, Metabolic Activation: HAMSTER, LIVER, S-9, Method: PREINCUBATION): inactive; negative

From PubChem BioAssay AID1259407 (Chemical Carcinogenesis Research Information System (CCRIS), 2018)
